Source: US8053553B2, “Targeting host proteinases as a therapeutic strategy against viral and bacterial pathogens” (Socpra Sciences Sante Et Humaines, priority 2007, dated 2011)
Like-named read-outs stand apart in the source and are kept apart here. Non-standard residues stand in square brackets, D forms with d. Residues, ends and D or L forms follow the SMILES beside them. Sar = CNCC(=O)O

Columns and labels:
PC4 = assay: Ki, μM | PC4
PACE4 = assay: Ki, μM | PACE4
PC5/6 = assay: Ki, μM | PC5/6
PC7 = assay: Ki, μM | PC7
furin = biological target: T1, furin (Homo sapiens, UniProt P09958); assay: biochemical; settings: furin, Pyr-RTKR-AMC substrate, read-out: Ki
T1 construct: made in house; host or cells: Drosophila S2 cells (Invitrogen expression system)

[1] = tested on: B. anthracis Sterne spores; parameters: species or system A/J mice; settings: mouse, in vivo
[2] = alanine scanning mutagenesis of the H5 furin cleavage sequence (Table 2)

T1 sequence (P09958 108-794 limits assumed): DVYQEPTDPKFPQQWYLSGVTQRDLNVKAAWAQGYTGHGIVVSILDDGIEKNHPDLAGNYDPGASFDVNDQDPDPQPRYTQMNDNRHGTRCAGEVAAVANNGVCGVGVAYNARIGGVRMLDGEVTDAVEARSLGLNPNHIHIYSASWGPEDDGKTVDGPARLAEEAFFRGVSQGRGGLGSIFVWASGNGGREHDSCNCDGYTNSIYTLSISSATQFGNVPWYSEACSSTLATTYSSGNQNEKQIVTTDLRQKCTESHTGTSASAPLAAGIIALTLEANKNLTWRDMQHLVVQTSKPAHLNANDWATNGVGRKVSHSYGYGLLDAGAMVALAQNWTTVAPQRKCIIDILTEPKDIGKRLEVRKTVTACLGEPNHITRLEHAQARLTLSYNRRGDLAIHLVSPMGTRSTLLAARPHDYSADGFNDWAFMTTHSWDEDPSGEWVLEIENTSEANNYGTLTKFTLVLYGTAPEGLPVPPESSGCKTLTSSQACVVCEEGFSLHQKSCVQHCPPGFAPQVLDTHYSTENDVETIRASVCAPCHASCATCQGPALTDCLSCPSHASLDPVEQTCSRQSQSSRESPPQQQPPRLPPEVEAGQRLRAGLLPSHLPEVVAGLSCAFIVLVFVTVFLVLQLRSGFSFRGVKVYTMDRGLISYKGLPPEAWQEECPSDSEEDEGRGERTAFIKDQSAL

SMILES	Ki (furin; [2])	also measured
C[C@H](NC(=O)[C@H](CCCNC(=N)N)NC(=O)[C@@H]1CCCN1C(=O)[C@@H](N)[C@@H](C)O)C(=O)N[C@@H](CCCNC(=N)N)C(=O)N[C@@H](CCCNC(=N)N)C(=O)N[C@@H](CCCNC(=N)N)C(=O)N[C@@H](CCCCN)C(=O)N[C@@H](CCCCN)C(=O)N[C@@H](CCCNC(=N)N)C(=O)N[C@H](C(N)=O)[C@@H](C)O (H-TPRARRRKKRT-NH2)	–	Ki (PC4): 0.441 µM; Ki (PACE4): 0.162 µM; Ki (PC5/6): 0.232 µM; Ki (PC7): 0.152 µM
CC(C)[C@H](NC(=O)[C@H](C)NC(=O)[C@H](C)NC(=O)[C@H](CCCCN)NC(=O)[C@H](CCCNC(=N)N)NC(=O)[C@H](CCCNC(=N)N)NC(=O)[C@H](CCCNC(=N)N)NC(=O)[C@H](CCC(=O)O)NC(=O)[C@H](CCCNC(=N)N)NC(=O)[C@@H]1CCCN1C(=O)[C@@H](N)[C@@H](C)O)C(N)=O (H-TPRERRRKAAV-NH2)	> 100 nM	–
C[C@H](NC(=O)[C@H](CCCCN)NC(=O)[C@H](CCCNC(=N)N)NC(=O)[C@H](CCCNC(=N)N)NC(=O)[C@H](CCCNC(=N)N)NC(=O)[C@H](CCC(=O)O)NC(=O)[C@H](CCCNC(=N)N)NC(=O)[C@@H]1CCCN1C(=O)[C@@H](N)[C@@H](C)O)C(=O)N[C@@H](C)C(=O)N(C)CC(N)=O (H-TPRERRRKAA[Sar]-NH2)	> 100 nM	–
C[C@H](NC(=O)[C@H](CCCCN)NC(=O)[C@H](CCCNC(=N)N)NC(=O)[C@H](CCCNC(=N)N)NC(=O)[C@H](CCCNC(=N)N)NC(=O)[C@H](CCC(=O)O)NC(=O)[C@H](CCCNC(=N)N)NC(=O)[C@@H]1CCCN1C(=O)[C@@H](N)[C@@H](C)O)C(=O)N[C@@H](CCCNC(=N)N)C(N)=O (H-TPRERRRKAR-NH2)	> 100 nM	–
CC(C)[C@H](NC(=O)[C@H](CCCNC(=N)N)NC(=O)[C@H](C)NC(=O)[C@H](CCCCN)NC(=O)[C@H](CCCNC(=N)N)NC(=O)[C@H](CCCNC(=N)N)NC(=O)[C@H](CCCNC(=N)N)NC(=O)[C@H](CCC(=O)O)NC(=O)[C@H](CCCNC(=N)N)NC(=O)[C@@H]1CCCN1C(=O)[C@@H](N)[C@@H](C)O)C(N)=O (H-TPRERRRKARV-NH2)	> 100 nM	–
C[C@H](NC(=O)[C@H](CCCCN)NC(=O)[C@H](CCCNC(=N)N)NC(=O)[C@H](CCCNC(=N)N)NC(=O)[C@H](CCCNC(=N)N)NC(=O)[C@H](CCC(=O)O)NC(=O)[C@H](CCCNC(=N)N)NC(=O)[C@@H]1CCCN1C(=O)[C@@H](N)[C@@H](C)O)C(=O)N[C@@H](CCCNC(=N)N)C(=O)N(C)CC(N)=O (H-TPRERRRKAR[Sar]-NH2)	> 100 nM	–
C[C@H](NC(=O)[C@H](CCCCN)NC(=O)[C@H](CCCCN)NC(=O)[C@H](CCCNC(=N)N)NC(=O)[C@H](CCCNC(=N)N)NC(=O)[C@H](CCCNC(=N)N)NC(=O)[C@H](CCC(=O)O)NC(=O)[C@H](CCCNC(=N)N)NC(=O)[C@@H]1CCCN1C(=O)[C@@H](N)[C@@H](C)O)C(N)=O (H-TPRERRRKKA-NH2)	> 100 nM	–
CC(C)[C@H](NC(=O)[C@H](C)NC(=O)[C@H](CCCCN)NC(=O)[C@H](CCCCN)NC(=O)[C@H](CCCNC(=N)N)NC(=O)[C@H](CCCNC(=N)N)NC(=O)[C@H](CCCNC(=N)N)NC(=O)[C@H](CCC(=O)O)NC(=O)[C@H](CCCNC(=N)N)NC(=O)[C@@H]1CCCN1C(=O)[C@@H](N)[C@@H](C)O)C(N)=O (H-TPRERRRKKAV-NH2)	> 100 nM	–
C[C@H](NC(=O)[C@H](CCCCN)NC(=O)[C@H](CCCCN)NC(=O)[C@H](CCCNC(=N)N)NC(=O)[C@H](CCCNC(=N)N)NC(=O)[C@H](CCCNC(=N)N)NC(=O)[C@H](CCC(=O)O)NC(=O)[C@H](CCCNC(=N)N)NC(=O)[C@@H]1CCCN1C(=O)[C@@H](N)[C@@H](C)O)C(=O)N(C)CC(N)=O (H-TPRERRRKKA[Sar]-NH2)	> 100 nM	–
C[C@@H](O)[C@H](N)C(=O)N1CCC[C@H]1C(=O)N[C@@H](CCCNC(=N)N)C(=O)N[C@@H](CCC(=O)O)C(=O)N[C@@H](CCCNC(=N)N)C(=O)N[C@@H](CCCNC(=N)N)C(=O)N[C@@H](CCCNC(=N)N)C(=O)N[C@@H](CCCCN)C(=O)N[C@@H](CCCCN)C(=O)N[C@@H](CCCNC(=N)N)C(N)=O (H-TPRERRRKKR-NH2)	> 100 nM	–
CC(C)[C@H](NC(=O)[C@H](CCCNC(=N)N)NC(=O)[C@H](CCCCN)NC(=O)[C@H](CCCCN)NC(=O)[C@H](CCCNC(=N)N)NC(=O)[C@H](CCCNC(=N)N)NC(=O)[C@H](CCCNC(=N)N)NC(=O)[C@H](CCC(=O)O)NC(=O)[C@H](CCCNC(=N)N)NC(=O)[C@@H]1CCCN1C(=O)[C@@H](N)[C@@H](C)O)C(N)=O (H-TPRERRRKKRV-NH2)	> 100 nM	–
C[C@@H](O)[C@H](N)C(=O)N1CCC[C@H]1C(=O)N[C@@H](CCCNC(=N)N)C(=O)N[C@@H](CCC(=O)O)C(=O)N[C@@H](CCCNC(=N)N)C(=O)N[C@@H](CCCNC(=N)N)C(=O)N[C@@H](CCCNC(=N)N)C(=O)N[C@@H](CCCCN)C(=O)N[C@@H](CCCCN)C(=O)N[C@@H](CCCNC(=N)N)C(=O)N(C)CC(N)=O (H-TPRERRRKKR[Sar]-NH2)	> 100 nM	–
C[C@@H](O)[C@H](N)C(=O)N1CCC[C@H]1C(=O)N[C@@H](CCCN=C(N)N)C(=O)NCC(=O)N[C@@H](CCCN=C(N)N)C(=O)N[C@@H](CCCN=C(N)N)C(=O)N[C@@H](CCCN=C(N)N)C(=O)N[C@@H](CCCCN)C(=O)N[C@@H](CCCCN)C(=O)N[C@@H](CCCN=C(N)N)C(=O)NCC(N)=O (H-TPRGRRRKKRG-NH2)	–	Ki (furin; optimization of the inhibitory peptides (Table 3)): 47 nM
O=C(O)c1cn(C2CC2)c2cc(N3CCNCC3)c(F)cc2c1=O [Cipro, reference compound]	–	infected mice protected from disease [1]: 40%; protection of A/J mice from anthrax [1]: protect A/J mice from anthrax
